{
  "source": "PubChem BioAssay AID1259407",
  "about": "(Chemical Carcinogenesis Research Information System (CCRIS), 2018)",
  "tested_on": "CCRIS mutagenicity, Ames/micronucleus/aberration tests",
  "assay": "CCRIS mutagenicity studies",
  "key": {"[1]": {"conditions": "Test System: AMES SALMONELLA TYPHIMURIUM, Strain/Indicator: TA98, Metabolic Activation: NONE, Method: PREINCUBATION"}, "[2]": {"conditions": "Test System: AMES SALMONELLA TYPHIMURIUM, Strain/Indicator: TA100, Metabolic Activation: NONE, Method: PREINCUBATION"}},
  "note": "Active and inactive are the calls of the source. How the calls were made is not given here.",
  "data": [
    {"smiles": "O=[N+]([O-])c1ccc(CNc2ncnc3c2ncn3[C@@H]2O[C@H](CO)[C@@H](O)[C@H]2O)cc1", "values": [
      {"measurement": "mutagenic call", "setting": "Test System: AMES SALMONELLA TYPHIMURIUM, Strain/Indicator: TA98(1,8-DNP), Metabolic Activation: NONE, Method: PREINCUBATION", "result": "inactive; negative"},
      {"measurement": "mutagenic call", "setting": "Test System: AMES SALMONELLA TYPHIMURIUM, Strain/Indicator: TA98(1,8-DNP), Metabolic Activation: RAT, LIVER, S-9, PCB, Method: PREINCUBATION", "result": "inactive; negative"},
      {"measurement": "mutagenic call", "setting": "Test System: AMES SALMONELLA TYPHIMURIUM, Strain/Indicator: TA98(NR), Metabolic Activation: NONE, Method: PREINCUBATION", "result": "inactive; negative"},
      {"measurement": "mutagenic call", "setting": "Test System: AMES SALMONELLA TYPHIMURIUM, Strain/Indicator: TA98(NR), Metabolic Activation: RAT, LIVER, S-9, PCB, Method: PREINCUBATION", "result": "inactive; negative"},
      {"measurement": "mutagenic call", "setting": "[1]", "result": "inactive; negative"},
      {"measurement": "mutagenic call", "setting": "Test System: AMES SALMONELLA TYPHIMURIUM, Strain/Indicator: TA98, Metabolic Activation: RAT, LIVER, S-9, PCB, Method: PREINCUBATION", "result": "inactive; negative"},
      {"measurement": "mutagenic call", "setting": "Test System: AMES SALMONELLA TYPHIMURIUM, Strain/Indicator: TA100(1,8-DNP), Metabolic Activation: NONE, Method: PREINCUBATION", "result": "inactive; negative"},
      {"measurement": "mutagenic call", "setting": "Test System: AMES SALMONELLA TYPHIMURIUM, Strain/Indicator: TA100(1,8-DNP), Metabolic Activation: RAT, LIVER, S-9, PCB, Method: PREINCUBATION", "result": "inactive; negative"},
      {"measurement": "mutagenic call", "setting": "Test System: AMES SALMONELLA TYPHIMURIUM, Strain/Indicator: TA100(NR), Metabolic Activation: NONE, Method: PREINCUBATION", "result": "inactive; negative"},
      {"measurement": "mutagenic call", "setting": "Test System: AMES SALMONELLA TYPHIMURIUM, Strain/Indicator: TA100(NR), Metabolic Activation: RAT, LIVER, S-9, PCB, Method: PREINCUBATION", "result": "inactive; negative"},
      {"measurement": "mutagenic call", "setting": "[2]", "result": "inactive; negative"},
      {"measurement": "mutagenic call", "setting": "Test System: AMES SALMONELLA TYPHIMURIUM, Strain/Indicator: TA100, Metabolic Activation: RAT, LIVER, S-9, PCB, Method: PREINCUBATION", "result": "inactive; negative"},
      {"measurement": "mutagenic call", "setting": "Test System: AMES SALMONELLA TYPHIMURIUM, Strain/Indicator: YG1020, Metabolic Activation: NONE, Method: PREINCUBATION", "result": "active; positive"},
      {"measurement": "mutagenic call", "setting": "Test System: AMES SALMONELLA TYPHIMURIUM, Strain/Indicator: YG1020, Metabolic Activation: RAT, LIVER, S-9, PCB, Method: PREINCUBATION", "result": "inactive; negative"},
      {"measurement": "mutagenic call", "setting": "Test System: AMES SALMONELLA TYPHIMURIUM, Strain/Indicator: YG1021, Metabolic Activation: NONE, Method: PREINCUBATION", "result": "active; positive"},
      {"measurement": "mutagenic call", "setting": "Test System: AMES SALMONELLA TYPHIMURIUM, Strain/Indicator: YG1021, Metabolic Activation: RAT, LIVER, S-9, PCB, Method: PREINCUBATION", "result": "active; positive"},
      {"measurement": "mutagenic call", "setting": "Test System: AMES SALMONELLA TYPHIMURIUM, Strain/Indicator: YG1024, Metabolic Activation: NONE, Method: PREINCUBATION", "result": "active; positive"},
      {"measurement": "mutagenic call", "setting": "Test System: AMES SALMONELLA TYPHIMURIUM, Strain/Indicator: YG1024, Metabolic Activation: RAT, LIVER, S-9, PCB, Method: PREINCUBATION", "result": "inactive; negative"},
      {"measurement": "mutagenic call", "setting": "Test System: AMES SALMONELLA TYPHIMURIUM, Strain/Indicator: YG1025, Metabolic Activation: NONE, Method: PREINCUBATION", "result": "inactive; negative"},
      {"measurement": "mutagenic call", "setting": "Test System: AMES SALMONELLA TYPHIMURIUM, Strain/Indicator: YG1025, Metabolic Activation: RAT, LIVER, S-9, PCB, Method: PREINCUBATION", "result": "inactive; negative"},
      {"measurement": "mutagenic call", "setting": "Test System: AMES SALMONELLA TYPHIMURIUM, Strain/Indicator: YG1026, Metabolic Activation: NONE, Method: PREINCUBATION", "result": "inactive; negative"},
      {"measurement": "mutagenic call", "setting": "Test System: AMES SALMONELLA TYPHIMURIUM, Strain/Indicator: YG1026, Metabolic Activation: RAT, LIVER, S-9, PCB, Method: PREINCUBATION", "result": "inactive; negative"},
      {"measurement": "mutagenic call", "setting": "Test System: AMES SALMONELLA TYPHIMURIUM, Strain/Indicator: YG1029, Metabolic Activation: NONE, Method: PREINCUBATION", "result": "inactive; negative"},
      {"measurement": "mutagenic call", "setting": "Test System: AMES SALMONELLA TYPHIMURIUM, Strain/Indicator: YG1029, Metabolic Activation: RAT, LIVER, S-9, PCB, Method: PREINCUBATION", "result": "inactive; negative"}
    ]},
    {"smiles": "C[C-](C)[N+](=O)[O-]", "values": [
      {"measurement": "mutagenic call", "setting": "[1]", "result": "active; positive"},
      {"measurement": "mutagenic call", "setting": "Test System: AMES SALMONELLA TYPHIMURIUM, Strain/Indicator: TA98, Metabolic Activation: RAT, LIVER, S-9, AROCLOR 1254, Method: PREINCUBATION", "result": "active; positive"},
      {"measurement": "mutagenic call", "setting": "[2]", "result": "active; positive"},
      {"measurement": "mutagenic call", "setting": "Test System: AMES SALMONELLA TYPHIMURIUM, Strain/Indicator: TA100, Metabolic Activation: RAT, LIVER, S-9, AROCLOR 1254, Method: PREINCUBATION", "result": "active; positive"},
      {"measurement": "mutagenic call", "setting": "Test System: AMES SALMONELLA TYPHIMURIUM, Strain/Indicator: TA100, Metabolic Activation: RAT, LIVER, S-9, AROCLOR, Method: PREINCUBATION", "result": "active; positive"},
      {"measurement": "mutagenic call", "setting": "Test System: AMES SALMONELLA TYPHIMURIUM, Strain/Indicator: TA102, Metabolic Activation: NONE, Method: PREINCUBATION", "result": "active; positive"},
      {"measurement": "mutagenic call", "setting": "Test System: AMES SALMONELLA TYPHIMURIUM, Strain/Indicator: TA102, Metabolic Activation: RAT, LIVER, S-9, AROCLOR 1254, Method: PREINCUBATION", "result": "active; positive"},
      {"measurement": "mutagenic call", "setting": "Test System: AMES SALMONELLA TYPHIMURIUM, Strain/Indicator: TA102, Metabolic Activation: RAT, LIVER, S-9, AROCLOR, Method: PREINCUBATION", "result": "active; positive"},
      {"measurement": "mutagenic call", "setting": "Test System: UDS CHINESE HAMSTER V-79 CELLS, Metabolic Activation: NONE, Method: AUTORADIOGRAPHY", "result": "active; positive"},
      {"measurement": "mutagenic call", "setting": "Test System: UDS CHINESE HAMSTER V-79 CELLS, Strain/Indicator: V-79-MZ/CYTIDINE INCORPORATION, Metabolic Activation: NONE, Method: AUTORADIOGRAPHY", "result": "inactive; negative"},
      {"measurement": "mutagenic call", "setting": "Test System: UDS CHINESE HAMSTER V-79 CELLS, Strain/Indicator: V-79-RHST20/CYTIDINE INCORPORATION, Metabolic Activation: NONE, Method: AUTORADIOGRAPHY", "result": "inactive; negative"},
      {"measurement": "mutagenic call", "setting": "Test System: UDS CHINESE HAMSTER V-79 CELLS, Strain/Indicator: V-79-RHSTA/CYTIDINE INCORPORATION, Metabolic Activation: NONE, Method: AUTORADIOGRAPHY", "result": "inactive; negative"},
      {"measurement": "mutagenic call", "setting": "Test System: UDS CHINESE HAMSTER V-79 CELLS, Strain/Indicator: V-79-RPST-IV/CYTIDINE INCORPORATION, Metabolic Activation: NONE, Method: AUTORADIOGRAPHY", "result": "active; positive"},
      {"measurement": "mutagenic call", "setting": "Test System: UDS HUMAN HEPATOCYTES, Strain/Indicator: THY INCORP, Metabolic Activation: NONE, Method: AUTORADIOGRAPHY", "result": "active; positive"},
      {"measurement": "mutagenic call", "setting": "Test System: UDS MOUSE HEPATOCYTES, Strain/Indicator: THY INCORP, Metabolic Activation: NONE, Method: AUTORADIOGRAPHY", "result": "active; positive"},
      {"measurement": "mutagenic call", "setting": "Test System: UDS RAT HEPATOCYTES, Strain/Indicator: THY INCORP, Metabolic Activation: NONE, Method: AUTORADIOGRAPHY", "result": "active; positive"}
    ]},
    {"smiles": "O=C(OCCBr)[C@@H](O)[C@H](O)C(=O)OCCBr", "values": [
      {"measurement": "mutagenic call", "setting": "Test System: AMES SALMONELLA TYPHIMURIUM, Strain/Indicator: TA100, Metabolic Activation: NONE, Method: STANDARD PLATE", "result": "active; positive"},
      {"measurement": "mutagenic call", "setting": "Test System: AMES SALMONELLA TYPHIMURIUM, Strain/Indicator: TA100, Metabolic Activation: RAT, LIVER, S-9, AROCLOR 1254, Method: STANDARD PLATE", "result": "active; positive"}
    ]},
    {"smiles": "O=[N+]([O-])C1=Cc2cccc3cccc1c23", "values": [
      {"measurement": "mutagenic call", "setting": "Test System: AMES SALMONELLA TYPHIMURIUM, Strain/Indicator: TA98, Metabolic Activation: NONE, Method: STANDARD PLATE", "result": "active; positive"}
    ]}
  ]
}
